Patent US12637468B2, “Substituted [1,2,4]triazolo[4,3-b]pyridazines as GABAA receptor modulators” (SHANGHAI SIMR BIOTECHNOLOGY CO., LTD., priority 2019, dated 2026)
Converted amounts (≈) assume the structure as drawn.

Columns and labels:
[1] = Thermodynamic solubility in simulated intestinal fluid (TS in FaSSIF); assay type: physicochemical; conditions: thermodynamic from solid, 37° C.
Method: Simulated intestinal fluid FaSSIF: 54.76 mg of FaSSIF-V2 (Biorelevant, batch. V2FAS-0619-A, lot. V2FAS01) was weighed and added to 15 mL of a buffer solution. After dissolving, the solution was supplemented to 30 mL, and put at room temperature for 1 hour before use.
Waters e2695 HPLC high performance liquid chromatography, Mettler XSE105 analytical balance.
Firstly, a 10 mM stock solution was prepared with DMSO, and was diluted with a diluent (ACN: PB buffer 50:50) into 1 μM-200 μM as a standard solution.
Thermodynamic solubility in intestinal fluid (TS in FaSSIF) was simulated. About 0.3 mg of each sample was weighed and added to 1.5 mL of FaSSIF solution, with two parts in parallel, shaken at 1000 rpm at 37° C. for 4 hours, filtered. 1 mL of an initial filtrate was discarded, and 400 μL of the subsequent filtrate was taken. The filtrate was detected by high performance liquid chromatograph (UV).

α5-GABAA receptor = target: T1, α5-GABAA receptor (Homo sapiens, UniProt P18507+P31644); assay: Cell-level screening: whole cell patch clamp, inverse agonist efficacy on α5-GABAA receptor expressed in HEK293; assay type: cell-based; conditions: drug 100 nM, GABA 0.05 μM, HEK293 expressing α5, β3 and γ2 subunits, clamped at −60 mV; read-out: Compound inverse agonist efficacy %
T1 construct: expressed in transfected cells; host or cells: HEK293, monoclonal stably transfected line
How it was run: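 Whole-cell patch clamp at −60 mV on HEK293 stably expressing α5β3γ2, pH 7.4 extracellular/CsCl internal solutions. Current evoked by 0.05 μM GABA, then compound in GABA solution; screening at 100 nM, dose-response 0.3–300 nM. Inverse agonist efficacy as % change of GABA current.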

T1 sequence (P31644 32-462): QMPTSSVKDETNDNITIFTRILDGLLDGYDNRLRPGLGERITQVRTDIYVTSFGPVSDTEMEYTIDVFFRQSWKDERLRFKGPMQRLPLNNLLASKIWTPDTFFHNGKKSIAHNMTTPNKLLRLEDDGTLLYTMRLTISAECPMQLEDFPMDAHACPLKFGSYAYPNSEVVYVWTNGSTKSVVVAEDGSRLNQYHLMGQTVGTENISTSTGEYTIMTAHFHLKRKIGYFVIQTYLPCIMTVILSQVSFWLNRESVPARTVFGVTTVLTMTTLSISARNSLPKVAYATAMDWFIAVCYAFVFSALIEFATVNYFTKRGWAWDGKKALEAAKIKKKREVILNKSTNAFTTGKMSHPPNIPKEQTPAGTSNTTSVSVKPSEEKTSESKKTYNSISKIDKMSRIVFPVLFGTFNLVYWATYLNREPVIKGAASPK
T1 sequence (P28472 26-473 partner): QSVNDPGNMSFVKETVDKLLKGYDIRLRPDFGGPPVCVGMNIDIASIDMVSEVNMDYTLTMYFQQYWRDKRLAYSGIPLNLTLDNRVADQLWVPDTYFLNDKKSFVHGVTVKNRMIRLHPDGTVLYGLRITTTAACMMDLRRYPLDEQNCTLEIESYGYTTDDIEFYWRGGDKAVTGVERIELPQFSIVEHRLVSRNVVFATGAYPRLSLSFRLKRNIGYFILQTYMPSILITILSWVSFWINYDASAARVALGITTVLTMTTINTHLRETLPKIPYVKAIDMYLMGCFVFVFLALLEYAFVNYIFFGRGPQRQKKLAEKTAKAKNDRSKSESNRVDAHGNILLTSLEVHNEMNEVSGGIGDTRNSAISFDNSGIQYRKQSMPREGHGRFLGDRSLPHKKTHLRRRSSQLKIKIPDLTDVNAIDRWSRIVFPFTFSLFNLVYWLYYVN
T1 sequence (P18507 40-467 isoform P18507-1 limits assumed): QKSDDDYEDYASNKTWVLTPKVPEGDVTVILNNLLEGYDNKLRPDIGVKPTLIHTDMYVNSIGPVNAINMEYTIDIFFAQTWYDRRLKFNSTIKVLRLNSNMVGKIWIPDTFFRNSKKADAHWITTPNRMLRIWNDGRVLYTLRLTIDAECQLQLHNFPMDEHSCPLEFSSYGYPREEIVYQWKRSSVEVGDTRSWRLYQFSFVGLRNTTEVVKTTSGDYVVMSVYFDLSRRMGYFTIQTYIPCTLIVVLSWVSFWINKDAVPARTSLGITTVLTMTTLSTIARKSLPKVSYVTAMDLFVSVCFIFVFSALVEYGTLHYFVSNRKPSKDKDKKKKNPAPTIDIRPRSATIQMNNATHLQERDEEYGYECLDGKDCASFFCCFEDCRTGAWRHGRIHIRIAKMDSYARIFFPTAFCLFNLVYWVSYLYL

Structure (SMILES) | solubility thermodynamic at 4 h [1] [µg/mL] | inhibition at 0.1 µM (α5-GABAA receptor) [%]
COCCN1CCc2nc(COc3nn4c(-c5cc(C)on5)nnc4cc3OC)ccc2C1=O [Embodiment 110] | 46.6 (≈ 100 µM) | 58.6
COCCCC(=O)N1CCc2nc(COc3nn4c(-c5cc(C)on5)nnc4cc3OC)ccc2C1 [Embodiment 112] | 318 (≈ 644 µM) | 52.4
COc1cc2nnc(-c3cc(C)on3)n2nc1OCc1ccc2c(n1)CCN(CCS(C)(=O)=O)C2 [Embodiment 113, 3-(7-Methoxy-6-((6-(2-(methylsulfonyl)ethyl)-5,6,7,8-tetrahydro-1,6-naphthalen-2-yl)methoxy)-[1,2,4]triazolo[4,3-b]pyridazin-3-yl)-5-methylisoxazole] | 191 (≈ 383 µM) | 36.7
COc1cc2nnc(-c3cc(C)on3)n2nc1OCc1ccc2c(n1)CCN(C1(CC#N)COC1)C2 [Embodiment 114, 2-(3-(2-(((7-Methoxy-3-(5-methylisoxazol-3-yl)-[1,2,4]triazolo[4,3-b]pyridazin-6-yl)oxy)methyl)-7,8-dihydro-1,6-naphthyridin-6(5H)-yl)oxetan-3-yl)acetonitrile] | 139 (≈ 284 µM) | 36
COc1cc2nnc(-c3cc(C)on3)n2nc1OCc1ccc2c(n1)CCN(C(C)=O)C2 [Embodiment 115] | 137 (≈ 315 µM) | 32.9
COc1cc2nnc(-c3cc(C)on3)n2nc1OCc1cccc(C2CCCN(C3COC3)C2)n1 (stereo not shown) [Embodiment 122] | 48.4 (≈ 101 µM) | 31.9
COc1cc2nnc(-c3cc(C)on3)n2nc1OCc1ccc(C2(F)CN(C)C2)cn1 [Embodiment 124] | 365 (≈ 859 µM) | 43.9
COc1cc2nnc(-c3cc(C)on3)n2nc1OCc1cccc(C2CCNCC2)n1 [Embodiment 126] | 203 (≈ 481 µM) | 38.3
CCN1CC(F)(c2ccc(COc3nn4c(-c5cc(C)on5)nnc4cc3OC)nc2)C1 [Embodiment 127] | 223 (≈ 508 µM) | 41.8
COCCn1ccc2nc(COc3nn4c(-c5noc(C)n5)nnc4cc3OC)ccc2c1=O [Embodiment 130] | 30.9 (≈ 66.5 µM) | 39.9
COc1cc2nnc(-c3cc(C)on3)n2nc1OCc1cccc2nccn12 [Embodiment 135] | 35.4 (≈ 93.8 µM) | 39.5
COc1cc2nnc(-c3cc(C)on3)n2nc1OCc1ccc2c(n1)CCN(C1COC1)C2=O [Embodiment 141] | 63.9 (≈ 138 µM) | 40.6
COc1cc2nnc(-c3cc(C)on3)n2nc1OCc1ccc(OCC2(C)COC2)nn1 [Embodiment 150] | 263 (≈ 598 µM) | 46.2
COCCCOc1cc(C)c(COc2nn3c(-c4cc(C)on4)nnc3cc2OC)nn1 [Embodiment 156] | 73.8 (≈ 167 µM) | 40.5
COc1cc2nnc(-c3cc(C)on3)n2nc1OCc1cnnn1C [Embodiment 158] | 38.2 (≈ 112 µM) | 53.1
COc1cc2nnc(-c3cc(C)on3)n2nc1OCc1ccc(OCC2CCOC2)nn1 (stereo not shown) [Embodiment 162] | 237 (≈ 538 µM) | 36.6
COc1cc2nnc(-c3cc(C)on3)n2nc1OCc1ccc(OCCN2CCN(C)CC2)nn1 [Embodiment 163] | 179 (≈ 373 µM) | 45.2
COc1cc2nnc(-c3cc(C)on3)n2nc1OCc1ccc(OCCN2CCOCC2)nn1 [Embodiment 164] | 309 (≈ 660 µM) | 33.9
CCN1CCC(c2cccc(COc3nn4c(-c5cc(C)on5)nnc4cc3OC)n2)CC1 [Embodiment 167] | 408 (≈ 907 µM) | 42.5
CCOCCCOc1ccc(COc2nn3c(-c4cc(C)on4)nnc3cc2OC)nn1 [Embodiment 168] | 59.9 (≈ 136 µM) | 37.5
COc1cc2nnc(-c3cc(C)on3)n2nc1OCc1ccc(CN2CCC2)cn1 [Embodiment 169] | 306 (≈ 752 µM) | 40.7
COc1cc2nnc(-c3cc(C)on3)n2nc1OCc1ccc(OCC2(C)COC2)cn1 [Embodiment 170] | 66.1 (≈ 151 µM) | 32.9

Structure (SMILES) | solubility thermodynamic at 4 h [1] [µg/mL] | inhibition at 0.1 µM (α5-GABAA receptor) [%]
COc1cc2nnc(-c3cc(C)on3)n2nc1OCc1ccc(OCC2CCOC2)cn1 (stereo not shown) [Embodiment 173] | 32.8 (≈ 74.8 µM) | 58.8
COc1cc2nnc(-c3cc(C)on3)n2nc1OCc1ccc(OC2CCOCC2)cn1 [Embodiment 174] | 35.4 (≈ 80.8 µM) | 43.5
COc1cc2nnc(-c3cc(C)on3)n2nc1OCc1ccc(OC2CC3(COC3)C2)nn1 [Embodiment 179] | 44.9 (≈ 99.5 µM) | 39
COc1cc2nnc(-c3cc(C)on3)n2nc1OCc1cc(OC2COC2)cnn1 [Embodiment 180] | 146 (≈ 356 µM) | 65.4
COc1cc2nnc(-c3cc(C)on3)n2nc1OCc1ccc2c(n1)CCN(CC(=O)N1CCCC1)C2 [Embodiment 189] | 75.8 (≈ 150 µM) | 52.4
COc1cc2nnc(-c3cc(C)on3)n2nc1OCc1ccc2c(n1)CCN(CC(=O)N(C)C)C2 [Embodiment 193] | 200 (≈ 418 µM) | 32.6
COc1cc2nnc(-c3cc(C)on3)n2nc1OCc1ccc2c(n1)CCN(C1CN(C(=O)C3CC3)C1)C2 [Embodiment 198] | 204 (≈ 395 µM) | 55.9
COc1cc2nnc(-c3cc(C)on3)n2nc1OCc1ccc2c(n1)CCN(CC1(C)COC1)C2 [Embodiment 200] | 228 (≈ 479 µM) | 37.4
COc1cc2nnc(-c3cc(C)on3)n2nc1OCc1ccc2c(n1)CCN(C(=O)N1CCOCC1)C2 [Embodiment 202] | 32.6 (≈ 64.3 µM) | 57.4
COc1cc2nnc(-c3cc(C)on3)n2nc1OCc1ccc2c(n1)CCN(C(=O)N(C)C)C2 [Embodiment 203] | 264 (≈ 569 µM) | 63.6
COc1cc2nnc(-c3cc(C)on3)n2nc1OCc1ccc2c(n1)CCN(C(=O)C(C)(C)C)C2 [Embodiment 206] | 34.8 (≈ 72.8 µM) | 44.7
COc1cc2nnc(-c3cc(C)on3)n2nc1OCc1ccc2c(n1)CCN(C(=O)NCC(F)(F)F)C2 [Embodiment 208] | 34 (≈ 65.5 µM) | 52.2
CCS(=O)(=O)N1CCc2nc(COc3nn4c(-c5cc(C)on5)nnc4cc3OC)ccc2C1 [Embodiment 210] | 47 (≈ 96.8 µM) | 43.4
COc1cc2nnc(-c3cc(C)on3)n2nc1OCc1ccc2nnc(C(C)C)n2n1 [Embodiment 214] | 237 (≈ 562 µM) | 34.9
COc1cc2nnc(-c3cc(C)on3)n2nc1OCc1ccc2nnc(C)n2n1 [Embodiment 216] | 167 (≈ 425 µM) | 52.1
COc1cc2nnc(-c3cc(C)on3)n2nc1OCc1ccn2c(C3CCOCC3)nnc2n1 [Embodiment 217] | 57.6 (≈ 124 µM) | 45.6
COc1cc2nnc(-c3cc(C)on3)n2nc1OCc1ccc2nn(C3CCOC3)cc2n1 (stereo not shown) [Embodiment 231] | 30.6 (≈ 68.1 µM) | 40.3
COc1cc2nnc(-c3cc(C)on3)n2nc1OCc1ccc2c(cnn2C2CCOC2)n1 (stereo not shown) [Embodiment 232] | 59 (≈ 131 µM) | 53.4
COc1cc2nnc(-c3cc(C)on3)n2nc1OCc1ccc2nn(C3CN(C)C3)cc2n1 [Embodiment 233] | 245 (≈ 547 µM) | 41.3
COc1cc2nnc(-c3cc(C)on3)n2nc1OCc1ccc2c(cnn2C2CN(C)C2)n1 [Embodiment 234] | 266 (≈ 594 µM) | 53.2
COCCn1ncc2nc(COc3nn4c(-c5cc(C)on5)nnc4cc3OC)ccc21 [Embodiment 241] | 91.8 (≈ 210 µM) | 51.3
COc1cc2nnc(-c3cc(C)on3)n2nc1OCc1ccc2ncn(C3CCOCC3)c2n1 [Embodiment 247] | 32.7 (≈ 70.8 µM) | 60.4
